The values that follow come from patent US20250090437A1, “COSMETIC COMPOUNDING AGENT, COSMETIC AND PRODUCTION METHOD THEREOF” (MIYOSHI OIL & FAT CO., LTD., priority 2019, published 2025).

This data set is described as follows: Water retention property test 2 (hydrates). The class given is physicochemical. Particulars: hydrate (anhydrides: aqueous solution at mono- to trihydrate concentration); for Pre-test moisture rate: before the test; for Post-test moisture rate / Rate of reduction in moisture: unsealed, 24 hours at 40° C. and 25% RH. On the procedure:
(2) Water retention property test 2 The water retention property of the hydrate of each compound was evaluated. Hydrates were used in the cases of the compounds C1 to C38, C40 to C49 and C56 to C59; however, since the compounds C39 and C62 to C64 were anhydrides, there were used aqueous solutions prepared by adding water so that a concentration would be that of monohydrate to trihydrate. The moisture rate of the sample(s) was confirmed using a Karl Fischer moisture meter (pre-test moisture rate: A). Next, 1.0 g of each of these samples was added to a screw tube, and this screw tube, while remaining unsealed, was then left to stand still for 24 hours in a thermo-hygrostat set to 40° C. and 25% RH. A moisture rate after 24 hours was again measured (post-test moisture rate: B), followed by calculating a rate of reduction in moisture in a similar manner as above so as to evaluate the water retention property. Here, a comparative evaluation was performed on each hydrate of the compounds C1 to C38, C40 to C49 and C56 to C59 together with an aqueous solution(s) of the compound C39 having a concentration(s) corresponding to the numbers of these hydration waters.
(monohydrates in compounds C1 to C38, C40 to C49 and C56 to C59 of working examples C62 to C99, C103 to C116 with compound C39 of working example C100, compound C62 of comparative example C4, compound C63 of comparative example C7 and compound C64 of comparative example C10)
(dihydrates in compounds C1 to C38, C40 to C49 and C56 to C59 of working examples C62 to C99, C103 to C116 with compound C39 of working example C101, compound C62 of comparative example C5, compound C63 of comparative example C8 and compound C64 of comparative example C11)
(trihydrates in compounds C1 to C38, C40 to C49 and C56 to C59 of working examples C62 to C99, C103 to C116 with compound C39 of working example C102, compound C62 of comparative example C6, compound C63 of comparative example C9 and compound C64 of comparative example C12)

In the case of `CCCC[N+](CCCC)(CCCC)CCCC.[Br-]` [Comparative example C4], the Pre-test moisture rate came to 2.5%, the Post-test moisture rate was determined as 4.9% and the “Rate of reduction in moisture” value came to 8.1%.
As to `CCCC[N+](CCCC)(CCCC)CCCC.[Br-]` [Comparative example C5], the Pre-test moisture rate was 10.1%, the Post-test moisture rate is given as 8.6% and the “Rate of reduction in moisture” value was 15.1%.
Taken in the same sequence, the figures for `CCCC[N+](CCCC)(CCCC)CCCC.[Br-]` [Comparative example C6] were 14.4%, 10.8% and 25.1%.
Taken in the same sequence, the figures for `CCCCn1cc[n+](C)c1.F[B-](F)(F)F` [Comparative example C7] were 7.4%, 3.9% and 47.3%.
Regarding `CCCCn1cc[n+](C)c1.F[B-](F)(F)F` [Comparative example C8], the Pre-test moisture rate was 13.8%, the Post-test moisture rate is on record as 7.1% and the “Rate of reduction in moisture” value is given as 48.6%.
As to `CCCCn1cc[n+](C)c1.F[B-](F)(F)F` [Comparative example C9], the Pre-test moisture rate was determined as 19.3%, the Post-test moisture rate is given as 11.2% and the “Rate of reduction in moisture” value was determined as 42.1%.
The like results for `OCC(O)CO` [Comparative example C10] were, in that order, 16.4%, 15.3% and 6.7%.
For the compound `OCC(O)CO` [Comparative example C11], the Pre-test moisture rate was determined as 28.1%, the Post-test moisture rate is listed as 24.4% and the “Rate of reduction in moisture” value came out at 13.3%.
The like results for `OCC(O)CO` [Comparative example C12] were, in that order, 37.0%, 31.9% and 13.7%.
The like results for `O=C1O[C@H]([C@@H](O)CO)C(O)=C1O.OCCNCCO` [Comparative example C104] were, in that order, 11.4%, 11.0% and 3.5%.
Taken in the same sequence, the figures for `O=C1OC(C(O)CO)C(O)=C1O.OCCN(CCO)CCO` (stereo not drawn) [Comparative example C105] were 10.0%, 9.8% and 2.0%.
Turning to `NC(CO)CO.O=C1O[C@H]([C@@H](O)CO)C(O)=C1O` [Comparative example C106], the Pre-test moisture rate stood at 11.9%, the Post-test moisture rate worked out at 11.7% and the “Rate of reduction in moisture” value was determined as 1.7%.
Taken in the same sequence, the figures for `CC(O)C(=O)O.NCCO` (stereo not drawn) [Working example C62] were 10.7%, 10.5% and 1.9%.
As to `CC(O)C(=O)O.OCCNCCO` [Working example C63], the Pre-test moisture rate is reported as 15.6%, the Post-test moisture rate stood at 14.9% and the “Rate of reduction in moisture” value is reported as 4.6%.
Taken in the same sequence, the figures for `O=C(O)CO.OCCNCCO` [Working example C64] were 16.6%, 16.1% and 3.0%.
The like results for `O=C(O)CCC(=O)O.OCCNCCO` [Working example C65] were, in that order, 13.9%, 13.1% and 6.0%.
The like results for `CC(O)C(=O)O.OCCN(CCO)CCO` [Working example C66] were, in that order, 18.4%, 17.7% and 3.8%.
With `CC(=O)O.NC(CO)CO` [Working example C67], the Pre-test moisture rate is reported as 19.3%, the Post-test moisture rate was determined as 18.8% and the “Rate of reduction in moisture” value is given as 2.8%.
The like results for `NC(CO)CO.O=C(O)CO` [Working example C68] were, in that order, 17.7%, 17.3% and 2.0%.
`CC(O)C(=O)O.NC(CO)CO` (stereo not drawn) [Working example C69]: the Pre-test moisture rate is listed as 16.6%, the Post-test moisture rate came out at 16.1% and the “Rate of reduction in moisture” value is on record as 2.8%.
The like results for `NC(CO)CO.O=C(O)CCC(=O)O` [Working example C70] were, in that order, 14.7%, 13.9% and 5.4%.
The like results for `NC(CO)CO.O=C(O)CC(O)(CC(=O)O)C(=O)O` [Working example C71] were, in that order, 11.3%, 10.7% and 5.4%.
Taken in the same sequence, the figures for `CS(=O)(=O)O.NC(CO)CO` [Working example C72] were 16.1%, 16.0% and 0.4%.
For `F[B-](F)(F)F.[NH3+]C(CO)CO` [Working example C73], the Pre-test moisture rate is 16.8%, the Post-test moisture rate was found to be 15.9% and the “Rate of reduction in moisture” value was determined as 5.5%.
Taken in the same sequence, the figures for `Br.NC(CO)CO` [Working example C74] were 17.3%, 15.7% and 9.5%.
Taken in the same sequence, the figures for `Cl.NC(CO)CO` [Working example C75] were 22.0%, 19.7% and 10.5%.
Taken in the same sequence, the figures for `CC(O)C(=O)O.CCC(N)(CO)CO` [Working example C76] were 14.7%, 14.3% and 3.0%.
As for `CCC(N)(CO)CO.O=C(O)CC(O)(CC(=O)O)C(=O)O` [Working example C77], the Pre-test moisture rate turned out to be 10.4%, the Post-test moisture rate worked out at 9.9% and the “Rate of reduction in moisture” value is reported as 4.9%.
Taken in the same sequence, the figures for `CCC(N)(CO)CO.CS(=O)(=O)O` [Working example C78] were 14.3%, 14.2% and 0.9%.
The like results for `Br.CCC(N)(CO)CO` [Working example C79] were, in that order, 15.3%, 13.9% and 8.9%.
Taken in the same sequence, the figures for `CCC(N)(CO)CO.Cl` [Working example C80] were 18.8%, 17.0% and 9.8%.
Take `CC(O)C(=O)O.NC(CO)(CO)CO` [Working example C81]: the Pre-test moisture rate worked out at 13.2%, the Post-test moisture rate came out at 12.9% and the “Rate of reduction in moisture” value is listed as 2.6%.
The like results for `NC(CO)(CO)CO.O=C(O)CC(O)(CC(=O)O)C(=O)O` [Working example C82] were, in that order, 10.3%, 9.8% and 5.0%.
Turning to `CS(=O)(=O)O.NC(CO)(CO)CO` [Working example C83], the Pre-test moisture rate was found to be 14.2%, the Post-test moisture rate is listed as 14.0% and the “Rate of reduction in moisture” value is reported as 1.1%.
The like results for `CC(O)C(=O)O.NCC(O)C(O)C(O)C(O)CO` (stereo not drawn) [Working example C84] were, in that order, 11.7%, 11.4% and 2.8%.
Taken in the same sequence, the figures for `CC(O)C(=O)O.N` (stereo not drawn) [Working example C85] were 14.4%, 13.7% and 4.7%.
Regarding `CC(O)C(=O)[O-].CCC(CO)(CO)[N+](CC(O)CO)(CC(O)CO)CC(O)CO` (stereo not drawn) [Working example C86], the Pre-test moisture rate turned out to be 7.9%, the Post-test moisture rate was found to be 7.5% and the “Rate of reduction in moisture” value is on record as 4.8%.
Taken in the same sequence, the figures for `CC(O)C(=O)[O-].OCC[N+](CCO)(CCO)CCO` [Working example C87] were 11.2%, 10.7% and 4.8%.
Taken in the same sequence, the figures for `CC(=O)[O-].C[N+](C)(C)CCO` [Working example C88] were 9.9%, 9.5% and 4.0%.
